Laboratory results: patent US6284785A, “1-arenesulfonyl-2-aryl-pyrrolidine and pyridine derivatives” (Hoffmann- La Roche Inc., priority 1999, dated 2001)

Biological target: T1, rat mGlu 1a receptor (Rattus norvegicus, UniProt P23385)
T1 construct: expressed in transfected cells; host or cells: EBNA cells (transient transfection)
Experiment: [Ca2+]i measurements (FLIPR, Fluo-3 AM) on mGlu 1a transfected EBNA cells; agonist or antagonist (against 10 μM glutamate)
Format: cell-based
Conditions: for Remarks (agonist / antagonist): table of substituents of the Examples, column Remarks; for agonist/antagonist: activity-data table; for EC50: agonist, activation of mGlu 1a in EBNA cells, read-out: IC50 (compounds marked agonist); for IC50: antagonist, tested against 10 μM glutamate as agonist, read-out: IC50 (compounds marked antagonist)
Method: cDNA encoding rat mGlu 1a receptor obtained from Prof. Nakanishi (Kyoto, Japan) was transiently tranfected into EBNA cells using a procedure described by Schlaeger et. al, New Dev. New Appl. Anim Cell Techn., Proc. ESACT Meet., 15th (1998), 105-112 and 117-120. [Ca^2+ ]i measurements were performed on mGlu 1a transfected EBNA cells after incubation of the cells with Fluo-3 AM (0.5 μM final concentration) for 1hour at 37° C. followed by 4 washes with assay buffer (DMEM supplemented with Hank's salt and 20 mM HEPES. [Ca^2+ ]i measurements were done using a fluorometric imaging plate reader (FLIPR, Molecular Devices Corporation, La Jolla, Calif. USA). When compounds were evaluated as antagonists they were tested against 10 μM glutamate as agonist.
The inhibition (antagonists) or activation (agonists) curves were fitted with a four parameter logistic equation giving EC50, IC50, and Hill coefficient using the iterative non linear curve fitting software Origin (Microcal Software Inc., Northampton, Mass., USA).

T1 sequence (P23385 19-1199): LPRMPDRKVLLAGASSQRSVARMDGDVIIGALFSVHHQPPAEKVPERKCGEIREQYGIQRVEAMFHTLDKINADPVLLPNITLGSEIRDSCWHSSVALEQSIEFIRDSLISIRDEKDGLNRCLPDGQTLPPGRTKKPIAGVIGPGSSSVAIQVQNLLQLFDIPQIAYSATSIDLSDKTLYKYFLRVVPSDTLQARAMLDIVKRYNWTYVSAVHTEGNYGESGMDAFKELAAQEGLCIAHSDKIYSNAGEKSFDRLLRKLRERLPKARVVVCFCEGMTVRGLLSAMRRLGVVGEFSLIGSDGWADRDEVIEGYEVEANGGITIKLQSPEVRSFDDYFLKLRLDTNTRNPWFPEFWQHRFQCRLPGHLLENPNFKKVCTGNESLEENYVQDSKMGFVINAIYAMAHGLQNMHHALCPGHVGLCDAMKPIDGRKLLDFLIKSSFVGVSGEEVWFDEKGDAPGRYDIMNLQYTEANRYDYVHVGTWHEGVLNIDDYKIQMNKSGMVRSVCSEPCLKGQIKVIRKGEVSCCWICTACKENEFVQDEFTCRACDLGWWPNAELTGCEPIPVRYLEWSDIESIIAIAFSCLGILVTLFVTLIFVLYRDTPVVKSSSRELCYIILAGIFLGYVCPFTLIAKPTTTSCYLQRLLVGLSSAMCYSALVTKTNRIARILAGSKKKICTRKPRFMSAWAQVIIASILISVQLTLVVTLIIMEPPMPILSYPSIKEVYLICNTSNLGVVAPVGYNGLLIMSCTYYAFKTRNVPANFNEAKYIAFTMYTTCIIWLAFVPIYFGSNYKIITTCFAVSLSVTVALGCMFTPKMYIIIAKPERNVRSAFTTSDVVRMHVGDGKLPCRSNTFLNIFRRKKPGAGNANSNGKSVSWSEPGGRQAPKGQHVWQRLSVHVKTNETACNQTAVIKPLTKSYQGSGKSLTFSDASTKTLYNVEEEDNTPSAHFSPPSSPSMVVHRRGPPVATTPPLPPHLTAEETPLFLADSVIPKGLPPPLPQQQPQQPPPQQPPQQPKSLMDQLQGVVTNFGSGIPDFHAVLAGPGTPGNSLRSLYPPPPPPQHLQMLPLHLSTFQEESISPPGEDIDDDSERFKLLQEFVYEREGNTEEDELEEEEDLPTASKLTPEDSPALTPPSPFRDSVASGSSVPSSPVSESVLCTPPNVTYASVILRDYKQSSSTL

| Remarks (agonist / antagonist) | agonistic / antagonistic activity to the mGlu receptor | Structure (SMILES) | also measured |
| --- | --- | --- | --- |
| Agonist |  | Cc1ccc(S(=O)(=O)N2CCCC2c2cccc(F)c2)cc1 (racemic) [Example 1, (RS)-2-(3-Fluoro-phenyl)-1-(toluene-4-sulfonyl)-pyrrolidine] |  |
| Agonist |  | O=S(=O)(c1ccc(Cl)cc1)N1CCCC1c1cccc(F)c1 (racemic) [Example 2, (RS)-1-(4-Chloro-benzenesulfonyl)-2-(3-fluoro-phenyl)-pyrrolidine] |  |
| Agonist |  | Cc1ccc(S(=O)(=O)N2CCCC2c2ccncc2)cc1 (racemic) [Example 3, (RS)-4-[1-(Toluene-4-sulfonyl)-pyrrolidin-2-yl]-pyridine] | agonist/antagonist: agonist; EC50: 8220 nM |
| Agonist |  | Cc1ccc(S(=O)(=O)N2CCCC2c2ccccc2)cc1 (racemic) [Example 4, (RS)-2-Phenyl-1-(toluene-4-sulfonyl)-pyrrolidine] | agonist/antagonist: agonist; EC50: 230 nM |
| Agonist | agonistic activty | O=S(=O)(c1ccc(Cl)cc1)N1CCCC1c1ccccc1 (racemic) [Example 6, (RS)-1-(4-Chloro-benzenesulfonyl)-2-phenyl-pyrrolidine] |  |
| Antagonist |  | O=S(=O)(c1ccccc1)N1CCCC1c1ccc(F)cc1 (racemic) [Example 7, (RS)-1-Benzenesulfonyl-2-(4-fluoro-phenyl)-pyrrolidine] | agonist/antagonist: antagonist; IC50: 8000 nM |
| Agonist | agonistic activty | Cc1ccc(S(=O)(=O)N2CCCC2c2ccc(Cl)cc2)cc1 (racemic) [Example 8, (RS)-2-(4-Chloro-phenyl)-1-(toluene-4-sulfonyl)-pyrrolidine] |  |
| Agonist | agonistic activty | O=S(=O)(c1ccc(Cl)cc1)N1CCCC1c1ccc(Cl)cc1 (racemic) [Example 9, (RS)-1-(4-Chloro-benzenesulfonyl)-2-(4-chloro-phenyl)-pyrrolidine] |  |
| Antagonist |  | COc1ccc(S(=O)(=O)N2CCCC2c2ccc(F)cc2)cc1 (racemic) [Example 10, (RS)-2-(4-Fluoro-phenyl)-1-(4-methoxy-benzenesulfonyl)-pyrrolidine] |  |
| Agonist |  | O=S(=O)(c1ccc(Cl)cc1)N1CCCC1c1ccc(F)cc1 (racemic) [Example 11, (RS)-1-(4-Chloro-benzenesulfonyl)-2-(4-fluorophenyl)-pyrrolidine] |  |
| Agonist |  | Cc1ccc(S(=O)(=O)N2CCCC2c2ccc(F)cc2)cc1 (racemic) [Example 12, (RS)-2-(4-Fluoro-phenyl)-1-(toluene-4-sulfonyl)-pyrrolidine] |  |
| Agonist |  | O=S(=O)(c1ccccc1)N1CCCC1c1ccc(Cl)cc1 (racemic) [Example 13, (RS)-1-Benzenesulfonyl-2-(4-chloro-phenyl)-pyrrolidine] |  |
| Agonist |  | O=S(=O)(c1ccc(Cl)cc1)N1CCCC1c1ccncc1 (racemic) [Example 14, (RS)-4-1-(4-Chloro-benzenesulfonyl)-pyrrolidine-pyridine] |  |
| Agonist | agonistic activty | O=S(=O)(c1ccc(F)cc1)N1CCCC1c1ccc(F)cc1 (racemic) [Example 16, (RS)-1-(4-Fluoro-benzenesulfonyl)-2-(4-fluoro-phenyl)-pyrrolidine] |  |
| Antagonist |  | Cc1ccccc1S(=O)(=O)N1CCCC1c1ccc(F)cc1 (racemic) [Example 18, (RS)-2-(4-Fluoro-phenyl)-1-(toluene-2-sulfonyl)-pyrrolidine] | agonist/antagonist: antagonist; IC50: 1370 nM |
| Agonist | agonistic activty | Cc1ccc(C2CCCN2S(=O)(=O)c2ccc(C)cc2)cc1 (racemic) [Example 19, (RS)-1-(Toluene-4-sulfonyl)-2-p-tolyl-pyrrolidine] |  |
| Antagonist |  | Cc1ccc(C2CCCN2S(=O)(=O)c2ccc(Cl)cc2)cc1 (racemic) [Example 20, (RS)-1-(4-Chloro-benzenesulfonyl)-2-p-tolyl-pyrrolidine] |  |
| Agonist | agonistic activty | CCc1ccc(S(=O)(=O)N2CCCC2c2ccc(F)cc2)cc1 (racemic) [Example 21, (RS)-1-(4-Ethyl-benzenesulfonyl)-2-(4-fluoro-Rhenyl)-pyrrolidine] |  |

| Remarks (agonist / antagonist) | agonistic / antagonistic activity to the mGlu receptor | Structure (SMILES) | also measured |
| --- | --- | --- | --- |
| Antagonist |  | CC(C)c1ccc(S(=O)(=O)N2CCCC2c2ccc(F)cc2)cc1 (racemic) [Example 22, (RS)-2-(4-Fluoro-phenyl)-1-(4-isopropyl-benzenesulfonyl)-pyrrolidine] |  |
| Antagonist |  | Cc1ccc(C2CCCN2S(=O)(=O)c2ccc(F)cc2)cc1 (racemic) [Example 23, (RS)-1-(4-Fluoro-benzenesulfonyl)-2-p-tolyl-pyrrolidine] |  |
| Antagonist |  | COc1ccc(C2CCCN2S(=O)(=O)c2ccc(Cl)cc2)cc1 (racemic) [Example 24, (RS)-1-(4-Chloro-benzenesulfonyl)-2-(4-methoxyl-phenyl)-pyrrolidine] |  |
| Agonist | agonistic activty | COc1ccc(C2CCCN2S(=O)(=O)c2ccc(C)cc2)cc1 (racemic) [Example 25, (RS)-2-(4-Methoxy-phenyl)-1-(toluene-4-sulfonyl)-pyrrolidine] |  |
| Agonist | agonistic activty | O=S(=O)(c1ccc(Br)cc1)N1CCCC1c1ccc(F)cc1 (racemic) [Example 26, (RS)-1-(4-Bromo-benzenesulfonyl)-2-(4-fluoro-phenyl)-pyrrolidine] |  |
| Antagonist |  | CC(=O)c1ccc(S(=O)(=O)N2CCCC2c2ccc(F)cc2)cc1 (racemic) [Example 27, (RS)-1-{4-[2-(4-Fluoro-phenyl)-pyrrolidine-1-sulfonyl]-phenyl}-ethanone] |  |
| Agonist |  | Cc1ccc(S(=O)(=O)N2CCCC2c2cccc(C)c2)cc1 (racemic) [Example 28, (RS)-1-(Toluene-4-sulfonyl)-2-m-tolyl-pyrrolidine] |  |
| Agonist | agonistic activty | Cc1cccc(C2CCCN2S(=O)(=O)c2ccc(Cl)cc2)c1 (racemic) [Example 29, (RS)-1-(4-Chloro-benzenesulfonyl)-2-m-tolyl-pyrrolidine] |  |
| Antagonist |  | Cc1cccc(C2CCCN2S(=O)(=O)c2ccc(F)cc2)c1 (racemic) [Example 30, (RS)-1-(4-Fluoro-benzenesulfonyl)-2-m-tolyl-pyrrolidine] |  |
| Agonist | agonistic activty | Cc1ccc(S(=O)(=O)N2CCCC2c2cccc(Cl)c2)cc1 (racemic) [Example 31, (RS)-2-(3-Chloro-phenyl)-1-(toluene-4-sulfonyl)-pyrrolidine] |  |
| Antagonist |  | O=S(=O)(c1ccc(Cl)cc1)N1CCCC1c1cccc(Cl)c1 (racemic) [Example 32, (RS)-1-(4-Chloro-benzenesulfonyl)-2-(3-chloro-phenyl)-pyrrolidine] |  |
| Antagonist |  | N#Cc1ccc(S(=O)(=O)N2CCCC2c2ccc(F)cc2)cc1 (racemic) [Example 33, (RS)-2-(4-Fluoro-phenyl)-1-(4-cyano-benzenesulfonyl)-pyrrolidine] |  |
| Antagonist |  | COc1cccc(C2CCCN2S(=O)(=O)c2ccc(Cl)cc2)c1 (racemic) [Example 34, (RS)-1-(4-Chloro-benzenesulfonyl)-2-(3-methoxy-phenyl)-pyrrolidine] |  |
| Antagonist |  | O=S(=O)(c1ccc(F)cc1)N1CCCC1c1cccs1 (racemic) [Example 35, (RS)-1-(4-Fluoro-benzenesulfonyl)-2-thien-2-yl-pyrrolidine] |  |
| Antagonist |  | O=S(=O)(c1ccc(Cl)cc1)N1CCCC1c1cccs1 (racemic) [Example 36, (RS)-1-(4-Chloro-benzenesulfonyl)-2-thien-2-yl-pyrrolidine] | agonist/antagonist: antagonist; IC50: 560 nM |
| Antagonist |  | Cc1ccc(S(=O)(=O)N2CCCC2c2cccs2)cc1 (racemic) [Example 37, (RS)-2-Thien-2-yl-1-(toluene-4-sulfonyl)-pyrrolidine] |  |
| Agonist | agonistic activty | Cc1ccc(S(=O)(=O)N2CCCC2c2ccc(F)c(F)c2)cc1 (racemic) [Example 38, (RS)-2-(3,4-Difluoro-phenyl)-1-(toluene-4-sulfonyl)-pyrrolidine] |  |
| Agonist | agonistic activty | O=S(=O)(c1ccc(Cl)cc1)N1CCCC1c1ccc(F)c(F)c1 (racemic) [Example 39, (RS)-1-(4-Chloro-benzenesulfonyl)-2-(3,4-difluoro-phenyl)-pyrrolidine] |  |
